For one molecule, Activity results are on record in ChEMBL document CHEMBL4609983, “Pan-specific and partially selective dye-labeled peptidic inhibitors of the polycomb paralog proteins” (Bioorg Med Chem, 2020).

Experiment [1] deals with T1, Chromodomain Y-like protein (Homo sapiens) (UniProt Q9Y232).
T1 sequence (whole entry): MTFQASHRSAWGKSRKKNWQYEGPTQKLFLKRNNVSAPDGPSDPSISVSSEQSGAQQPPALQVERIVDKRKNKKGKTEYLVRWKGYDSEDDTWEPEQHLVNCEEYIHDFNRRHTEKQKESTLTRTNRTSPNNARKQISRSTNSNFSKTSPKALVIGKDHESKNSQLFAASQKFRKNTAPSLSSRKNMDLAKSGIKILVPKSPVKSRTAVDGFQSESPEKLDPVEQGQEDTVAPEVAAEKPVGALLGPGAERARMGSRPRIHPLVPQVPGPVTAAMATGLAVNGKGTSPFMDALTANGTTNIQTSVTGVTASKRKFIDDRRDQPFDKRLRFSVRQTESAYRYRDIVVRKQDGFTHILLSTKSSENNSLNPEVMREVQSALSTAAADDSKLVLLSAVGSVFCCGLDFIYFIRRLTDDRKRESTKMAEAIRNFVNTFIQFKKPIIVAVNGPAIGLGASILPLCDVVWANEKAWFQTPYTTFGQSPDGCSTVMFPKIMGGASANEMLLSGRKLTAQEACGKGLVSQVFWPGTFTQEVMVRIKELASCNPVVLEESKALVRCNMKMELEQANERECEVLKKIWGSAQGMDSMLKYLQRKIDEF
The experiment in a line: Binding affinity to recombinant human CDYL1B by microarray based assay.

Experiment [2] concerns the target T2, E3 SUMO-protein ligase CBX4 (Homo sapiens) (UniProt O00257).
T2 sequence (whole entry): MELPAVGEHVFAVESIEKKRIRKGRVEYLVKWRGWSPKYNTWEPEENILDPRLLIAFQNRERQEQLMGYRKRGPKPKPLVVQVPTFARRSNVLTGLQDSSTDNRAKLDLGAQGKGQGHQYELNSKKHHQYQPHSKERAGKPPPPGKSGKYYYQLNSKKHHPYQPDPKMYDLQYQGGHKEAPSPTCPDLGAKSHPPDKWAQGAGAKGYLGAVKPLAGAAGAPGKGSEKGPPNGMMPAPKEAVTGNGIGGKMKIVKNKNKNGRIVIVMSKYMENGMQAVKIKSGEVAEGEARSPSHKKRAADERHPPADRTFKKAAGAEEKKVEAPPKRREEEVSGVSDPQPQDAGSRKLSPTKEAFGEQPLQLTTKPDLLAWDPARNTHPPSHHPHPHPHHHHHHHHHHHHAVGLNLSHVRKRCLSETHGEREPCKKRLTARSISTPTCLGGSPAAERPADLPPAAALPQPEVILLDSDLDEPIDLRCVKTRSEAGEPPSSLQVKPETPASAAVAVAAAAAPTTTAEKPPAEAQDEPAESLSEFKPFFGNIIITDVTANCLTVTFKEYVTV
The experiment in a line: Binding affinity to recombinant human CBX4 by microarray based assay.

Activity calls are given as the source filed them. The calls are words filed in the database; no cut-off is given here. Non-standard residues stand in square brackets, D forms with d. Residues, ends and D or L forms follow the SMILES beside them. *: point of attachment. Biotin = O=C1N[C@H]2[C@H](CS[C@H]2CCCCC(=O)*)N1; Lys(Me3) = C[N+](C)(C)CCCC[C@H](N)C(=O)O; Benzoyl(4-Br) = O=C(c1ccc(Br)cc1)*

`CC(C)C[C@H](NC(=O)[C@H](CO)NC(=O)[C@H](CCCC[N+](C)(C)C)NC(=O)[C@H](Cc1ccc(O)cc1)NC(=O)[C@H](C)NC(=O)[C@H](Cc1ccccc1)NC(=O)c1ccc(Br)cc1)C(=O)N[C@@H](CCCCNC(=O)CCCC[C@@H]1SC[C@@H]2NC(=O)N[C@@H]21)C(N)=O` ({Benzoyl(4-Br)}-FAY[Lys(Me3)]SLK(Biotin)-NH2): the result in experiment [1] and in experiment [2] was Active.
